Key:
Format in all cases: functional
[1] = test system: HL-60(TB); assay: Cytotoxicity against human HL-60(TB) cells assessed as cell growth at 10^-4 M after 48 hrs by SRB assay; settings: HL-60, 48 h, read-out: Activity
[2] = test system: OVCAR-8; assay: Cytotoxicity against human OVCAR8 cells assessed as cell growth at 10^-8 M after 48 hrs by SRB assay; settings: OVCAR-8, 48 h, read-out: Activity
[3] = Cytotoxicity against human OVCAR5 cells assessed as cell growth at 10^-4 M after 48 hrs by SRB assay; settings: OVCAR-5, 48 h, read-out: Activity
[4] = Cytotoxicity against human Hs578T cells assessed as cell growth at 10^-6 M after 48 hrs by SRB assay; settings: Hs-578T, read-out: Activity
[5] = test system: SR; assay: Cytotoxicity against human SR cells assessed as cell growth at 10^-7 M after 48 hrs by SRB assay; settings: read-out: Activity
[6] = test system: SK-OV-3; assay: Cytotoxicity against human SKOV3 cells assessed as cell growth at 10^-7 M after 48 hrs by SRB assay; settings: SK-OV-3, 48 h, read-out: Activity
[7] = test system: CCRF-CEM; assay: Cytotoxicity against human CCRF-CEM cells assessed as cell growth at 10^-7 M after 48 hrs by SRB assay; settings: read-out: Activity
[8] = test system: M14; assay: Cytotoxicity against human M14 cells assessed as cell growth at 10^-4 M after 48 hrs by SRB assay; settings: M14, 48 h, read-out: Activity
[9] = test system: IGROV-1; assay: Cytotoxicity against human IGROV1 cells assessed as cell growth at 10^-8 M after 48 hrs by SRB assay; settings: IGROV-1, 48 h, read-out: Activity
[10] = test system: SF-539; assay: Cytotoxicity against human SF539 cells assessed as cell growth at 10^-4 M after 48 hrs by SRB assay; settings: SF-539, 48 h, read-out: Activity
[11] = test system: SK-MEL-5; assay: Cytotoxicity against human SK-MEL-5 cells assessed as cell growth at 10^-8 M after 48 hrs by SRB assay; settings: SK-MEL-5, 48 h, read-out: Activity
[12] = test system: 786-0; assay: Cytotoxicity against human 786-0 cells assessed as cell growth at 10^-6 M after 48 hrs by SRB assay; settings: 786-0, 48 h, read-out: Activity
[13] = test system: ACHN; assay: Cytotoxicity against human ACHN cells assessed as cell growth at 10^-4 M after 48 hrs by SRB assay; settings: read-out: Activity
[14] = test system: OVCAR-8; assay: Cytotoxicity against human OVCAR8 cells assessed as cell growth at 10^-6 M after 48 hrs by SRB assay; settings: OVCAR-8, 48 h, read-out: Activity
[15] = test system: SR; assay: Cytotoxicity against human SR cells after 48 hrs by SRB assay
[16] = test system: 786-0; assay: Cytotoxicity against human 786-0 cells after 48 hrs by SRB assay; settings: 786-0, 48 h
[17] = test system: NCI-H522; assay: Cytotoxicity against human NCI-H522 cells assessed as cell growth at 10^-8 M after 48 hrs by SRB assay; settings: NCI-H522, 48 h, read-out: Activity
[18] = test system: IGROV-1; assay: Cytotoxicity against human IGROV1 cells assessed as cell growth at 10^-7 M after 48 hrs by SRB assay; settings: IGROV-1, 48 h, read-out: Activity
[19] = test system: SW-620; assay: Cytotoxicity against human SW620 cells after 48 hrs by SRB assay; settings: SW-620, 48 h
[20] = Cytotoxicity against human OVCAR5 cells assessed as cell growth at 10^-8 M after 48 hrs by SRB assay; settings: OVCAR-5, 48 h, read-out: Activity
[21] = test system: SK-MEL-5; assay: Cytotoxicity against human SK-MEL-5 cells after 48 hrs by SRB assay; settings: SK-MEL-5, 48 h
[22] = test system: DU-145; assay: Cytotoxicity against human DU145 cells assessed as cell growth at 10^-8 M after 48 hrs by SRB assay; settings: DU-145, 48 h, read-out: Activity
[23] = test system: U-251; assay: Cytotoxicity against human U251 cells assessed as cell growth at 10^-8 M after 48 hrs by SRB assay; settings: U-251, 48 h, read-out: Activity
[24] = test system: OVCAR-3; assay: Cytotoxicity against human OVCAR3 cells after 48 hrs by SRB assay; settings: OVCAR-3, 48 h
[25] = test system: HCT-15; assay: Cytotoxicity against human HCT15 cells assessed as cell growth at 10^-8 M after 48 hrs by SRB assay; settings: HCT-15, 48 h, read-out: Activity
[26] = test system: UACC-62; assay: Cytotoxicity against human UACC62 cells assessed as cell growth at 10^-8 M after 48 hrs by SRB assay; settings: UACC-62, 48 h, read-out: Activity
[27] = test system: HT-29; assay: Cytotoxicity against human HT-29 cells assessed as cell growth at 10^-7 M after 48 hrs by SRB assay; settings: HT-29, 48 h, read-out: Activity
[28] = test system: CAKI-1; assay: Cytotoxicity against human Caki1 cells assessed as cell growth at 10^-4 M after 48 hrs by SRB assay; settings: CAKI-1, 48 h, read-out: Activity
[29] = test system: NCI-H23; assay: Cytotoxicity against human NCI-H23 cells after 48 hrs by SRB assay; settings: NCI-H23, 48 h
[30] = test system: SK-OV-3; assay: Cytotoxicity against human SKOV3 cells assessed as cell growth at 10^-6 M after 48 hrs by SRB assay; settings: SK-OV-3, 48 h, read-out: Activity
[31] = test system: MCF7; assay: Cytotoxicity against human MCF7 cells assessed as cell growth at 10^-8 M after 48 hrs by SRB assay; settings: MCF7, 48 h, read-out: Activity
[32] = test system: BT-549; assay: Cytotoxicity against human BT549 cells assessed as cell growth at 10^-7 M after 48 hrs by SRB assay; settings: BT-549, 48 h, read-out: Activity
[33] = test system: SK-MEL-28; assay: Cytotoxicity against human SK-MEL-28 cells after 48 hrs by SRB assay; settings: SK-MEL-28, 48 h
[34] = test system: SK-MEL-5; assay: Cytotoxicity against human SK-MEL-5 cells assessed as cell growth at 10^-4 M after 48 hrs by SRB assay; settings: SK-MEL-5, 48 h, read-out: Activity
[35] = test system: NCI-H322M; assay: Cytotoxicity against human NCI-H322M cells assessed as cell growth at 10^-6 M after 48 hrs by SRB assay; settings: read-out: Activity
[36] = test system: RPMI-8226; assay: Cytotoxicity against human RPMI8226 cells assessed as cell growth at 10^-8 M after 48 hrs by SRB assay; settings: RPMI-8226, 48 h, read-out: Activity
[37] = test system: KM12; assay: Cytotoxicity against human KM12 cells assessed as cell growth at 10^-6 M after 48 hrs by SRB assay; settings: KM12, 48 h, read-out: Activity
[38] = test system: RPMI-8226; assay: Cytotoxicity against human RPMI8226 cells after 48 hrs by SRB assay; settings: RPMI-8226, 48 h
[39] = test system: OVCAR-3; assay: Cytotoxicity against human OVCAR3 cells assessed as cell growth at 10^-8 M after 48 hrs by SRB assay; settings: OVCAR-3, 48 h, read-out: Activity

## C=CCn1c(C)nc2ccc(Nc3nc(Nc4ccc5nc(C)n(CC=C)c5c4)c4ccccc4n3)cc21
[1]
  growth at 100 µM: -32%
[2]
  growth at 0.01 µM: 97%
[3]
  growth at 100 µM: -75%
[4]
  growth at 1 µM: 81%
[5]
  growth at 0.1 µM: 93%
[6]
  growth at 0.1 µM: 95%
[7]
  growth at 0.1 µM: 96%
[8]
  growth at 100 µM: -7%
[9]
  growth at 0.01 µM: 100%
[10]
  growth at 100 µM: -61%
[11]
  growth at 0.01 µM: 94%
[12]
  growth at 1 µM: 92%
[13]
  growth at 100 µM: -69%
[14]
  growth at 1 µM: 80%
[15]
  GI50: 1.52 µM
  LC50: > 100 µM
  TGI: 3.98 µM
[16]
  GI50: 1.73 µM
  TGI: 3.36 µM
[17]
  growth at 0.01 µM: 97%
[18]
  growth at 0.1 µM: 101%
[19]
  GI50: 1.5 µM
  TGI: 2.94 µM
[20]
  growth at 0.01 µM: 95%
[21]
  GI50: 1.65 µM
  TGI: 3.03 µM
[22]
  growth at 0.01 µM: 102%
[23]
  growth at 0.01 µM: 96%
[24]
  GI50: 1.7 µM
  TGI: 3.08 µM
[25]
  growth at 0.01 µM: 96%
[26]
  growth at 0.01 µM: 96%
[27]
  growth at 0.1 µM: 101%
[28]
  growth at 100 µM: -28%
[29]
  GI50: 1.72 µM
  TGI: 3.23 µM
[30]
  growth at 1 µM: 96%
[31]
  growth at 0.01 µM: 92%
[32]
  growth at 0.1 µM: 95%
[33]
  GI50: 1.84 µM
  TGI: 3.28 µM
[34]
  growth at 100 µM: -24%
[35]
  growth at 1 µM: 92%
[36]
  growth at 0.01 µM: 99%
[37]
  growth at 1 µM: 89%
[38]
  GI50: 1.87 µM
  LC50: > 100 µM
[39]
  growth at 0.01 µM: 99%

## C=CCn1c(C)nc2cc(Nc3nc(Nc4ccc5nc(C)n(CC=C)c5c4)c4ccccc4n3)ccc21
[1]
  growth at 100 µM: -28%
[2]
  growth at 0.01 µM: 100%
[3]
  growth at 100 µM: -44%
[4]
  growth at 1 µM: 94%
[5]
  growth at 0.1 µM: 89%
[6]
  growth at 0.1 µM: 106%
[7]
  growth at 0.1 µM: 107%
[8]
  growth at 100 µM: -4%
[9]
  growth at 0.01 µM: 103%
[10]
  growth at 100 µM: -94%
[11]
  growth at 0.01 µM: 100%
[12]
  growth at 1 µM: -78%
[13]
  growth at 100 µM: -38%
[14]
  growth at 1 µM: -11%
[15]
  GI50: 0.222 µM
  LC50: > 100 µM
[16]
  GI50: 0.188 µM
  TGI: 0.362 µM
[17]
  growth at 0.01 µM: 97%
[18]
  growth at 0.1 µM: 106%
[19]
  GI50: 0.195 µM
  TGI: 0.388 µM
[20]
  growth at 0.01 µM: 93%
[21]
  GI50: 1.59 µM
  TGI: 3.69 µM
[22]
  growth at 0.01 µM: 99%
[23]
  growth at 0.01 µM: 97%
[24]
  GI50: 0.192 µM
  LC50: 0.701 µM
  TGI: 0.367 µM
[25]
  growth at 0.01 µM: 101%
[26]
  growth at 0.01 µM: 97%
[27]
  growth at 0.1 µM: 103%
[28]
  growth at 100 µM: -54%
[29]
  GI50: 2.05 µM
  TGI: 4.2 µM
[30]
  growth at 1 µM: 97%
[31]
  growth at 0.01 µM: 101%
[32]
  growth at 0.1 µM: 101%
[33]
  GI50: 2.02 µM
  TGI: 3.86 µM
[34]
  growth at 100 µM: -37%
[35]
  growth at 1 µM: 43%
[36]
  growth at 0.01 µM: 100%
[37]
  growth at 1 µM: -40%
[38]
  GI50: 1.24 µM
  LC50: > 100 µM
  TGI: 3.93 µM
[39]
  growth at 0.01 µM: 100%

## C=CCn1c(C)nc2ccc(Nc3nc(Nc4ccc(F)cc4)nc4ccccc34)cc21
[1]
  growth at 100 µM: -45%
[2]
  growth at 0.01 µM: 98%
[3]
  growth at 100 µM: -80%
[4]
  growth at 1 µM: 86%
[5]
  growth at 0.1 µM: 98%
[6]
  growth at 0.1 µM: 112%
[7]
  growth at 0.1 µM: 102%
[8]
  growth at 100 µM: -44%
[9]
  growth at 0.01 µM: 95%
[10]
  growth at 100 µM: -92%
[11]
  growth at 0.01 µM: 92%
[12]
  growth at 1 µM: 96%
[13]
  growth at 100 µM: -73%
[14]
  growth at 1 µM: 93%
[15]
  GI50: 2.26 µM
  LC50: > 100 µM
  TGI: 5.93 µM
[16]
  GI50: 7.44 µM
  TGI: 23.8 µM
[16]; read-out: LC50 (the source's name)
  CC50: 65.1 µM
[17]
  growth at 0.01 µM: 89%
[18]
  growth at 0.1 µM: 94%
[19]
  GI50: 2.8 µM
  LC50 (concentration killing 50% of cells): > 100 µM
  TGI: 10.7 µM
[20]
  growth at 0.01 µM: 101%
[21]
  GI50: 1.36 µM
  LC50: 5.14 µM
  TGI: 2.64 µM
[22]
  growth at 0.01 µM: 100%
[23]
  growth at 0.01 µM: 97%
[24]
  GI50: 5.04 µM
  LC50: 46.3 µM
  TGI: 17.8 µM
[25]
  growth at 0.01 µM: 99%
[26]
  growth at 0.01 µM: 99%
[27]
  growth at 0.1 µM: 101%
[28]
  growth at 100 µM: -53%
[29]
  GI50: 4.23 µM
  LC50 (concentration giving 50% net cell kill): > 100 µM
  TGI: 26 µM
[30]
  growth at 1 µM: 100%
[31]
  growth at 0.01 µM: 91%
[32]
  growth at 0.1 µM: 94%
[33]
  GI50: 1.65 µM
  LC50: 5.94 µM
  TGI: 3.13 µM
[34]
  growth at 100 µM: -69%
[35]
  growth at 1 µM: 85%
[36]
  growth at 0.01 µM: 106%
[37]
  growth at 1 µM: 94%
[38]
  GI50: 1.85 µM
  LC50: > 100 µM
  TGI: 4.57 µM
[39]
  growth at 0.01 µM: 97%
